Reference: the NIST ThermoML archive (doi:10.1021/acs.jced.5b00773)
± gives the expanded uncertainty stated by the source.

Details: Liquid, Closed cell (Static) method

CCC(C)O (stereo not drawn) [butan-2-ol]
vapor or sublimation pressure (473.46 K): 1500 ± 10 kPa

CCOC(C)=O [ethyl acetate]
vapor or sublimation pressure (462.75 K): 1500 ± 10 kPa

COC(C)=O [methyl ethanoate]
vapor or sublimation pressure (436.08 K): 1500 ± 10 kPa
